Measurements from patent publication US20080261309A1, “IN VITRO MULTIPLICATION OF HOODIA PLANTS” (CONOPCO, INC., D/B/A/ UNILEVER, priority 2007, published 2008).
Where “and” joins values, the source holds several entries; their conditions need not be identical. Identical values can stand only once.

Assays:
[1] = test system: Hoodia explants; assay: Effect of gibberellic acid concentrations on shoot elongation and proliferation; format: cell-based, Hoodia gordonii; settings: for Number of new shoots: replicates 1-7
Experimental: This Example investigated the effect of various giberellic acid concentrations on shoot elongation and proliferation.
An average of four shoots per explant was observed when the GA3 concentration was increased from 2.89 μM to 5.78 μM with 17.74 μM of BAP and 5.71 μM of IAA. As the concentration increased, the shoot length was retarded but side shoots were formed.

[2] = test system: H. gordonii shoot tips; assay: Sterilisation of shoot tips: clean plants free of visible bacteria or fungal growth; design: species or system Hoodia gordonii
Experimental: Example 1 investigated the effect of various sterilization protocols on the number of clean shoots and their ability to produce new shoots after sterilization.
A total of 211 shoot tips (5-6 cm) of fresh H. gordonii plant material were collected from cultivation sites.
The shoot tips were washed thoroughly for 3-5 minutes under running tap water and liquid detergent to remove any debris from the field. The spikes on some of the plants were carefully removed with a surgical blade before the sterilisation process. […] Each tub contained around 10 shoot tips placed in 300 ml of the sterilizing solution. The tubs were placed on a shaker at low speed 80 rpm for 5 minutes. After 5 minutes, the mercuric chloride was poured out and the plants were rinsed once in sterile distilled water. After rinsing with sterile distilled water, a second sterilisation process with 30% sodium hypochlorite solution was carried out. The tubs were placed on a shaker at a speed of 80 rpm for 30 or 40 minutes. A total of 188 shoots were sterilized for 30 minutes while […] shoots were sterilized for 40 minutes. After draining the sodium hypochlorite, a batch of the plants were rinsed in distilled sterile water before putting in the initiation medium white another batch was placed directly into the initiation medium without rinsing. Recording of the percentage clean plants was done two weeks after initiation. Clean plants were shoots that were free of visible bacteria or fungal growth.
After sterilisation, the shoot tips were cultured on Murashige and Skoog (M&S) basal salt medium with M&S vitamins supplemented with 30 g/l sucrose, 3 g/l gelrite, 25 mg/l cefotaxime. The phytohormones used for the initiation medium were 17.74 μM Benzylaminopurine (BAP) and 5.71 μM Indole acetic acid (IAA). The pH of all the media tested was adjusted to 5.8 with either 1M potassium hydroxide (KOH) or 1N hydrochloric acid (HCl) before autoclaving at 121° C. for 20 minutes. Each 250 ml bottle contained one shoot tip. All the cultures were incubated at 26±2° C. in a growth room with a 16/8 hour light/dark photoperiod (39-90 μE/m^2/s). New shoot growth normally started a week after sterilisation. After two weeks in culture, bottles that were visibly clean were counted.

[3] = test system: Hoodia explants; assay: Effect of BAP and IAA concentrations and combinations on shoot multiplication; format: cell-based, Hoodia gordonii
Experimental: In all the multiplication and later rooting trials, the experiments were carried out in a randomised factorial design with at least four replicates per treatment. The student's t-test was used to determine significant difference between the phytohormone treatments. P values≦0.05 was considered significant.
This example tested the effect of different benzylaminopurine (BAP, cytokinin), indoleacetic acid (IAA, auxin) concentration and combinations on shoot multiplication.
The basal salt medium used for this experiment was M&S basal salt and vitamins. All the other components were the same as used for initiation medium in Example 1. […] Factorial experiments were designed to test the effect of these phytohormones on shoot multiplication.
Each treatment had four replicates. Results were obtained after two sub-cultures.

[4] = test system: Hoodia shoots; assay: Effect of sucrose concentration on new shoot formation; format: cell-based, Hoodia gordonii; settings: lowering sucrose from 30 g/l to 20 g/l in the multiplication medium
From the text: Example 6 tested the effect of three sucrose concentrations 0, 20 and 30 g/l on new shoot formation. All the other supplements were the same as for the initiation medium in Example 1. M&S basal salt and vitamin was used as the basal medium.
The sucrose concentrations used for the multiplication experiments were 0, 20 and 30 g/l respectively. There was no multiplication on plants placed in the control (0 g/l) medium which had no sugar. The shoots were stunted and started to turn to yellow after three weeks in culture.

## C=C1C[C@]23C[C@@]1(O)CC[C@H]2[C@@]12C=C[C@H](O)[C@@](C)(C(=O)O1)[C@H]2[C@@H]3C(=O)O [GA3, gibberellic acid]
[1]; GA3 1.44 μM
  Number of new shoots: 1 (3×) and 2 (2×) and 0 (2×)
[1]; GA3 2.89 μM and 5.77 μM
  Shoot elongation and multiplication: elongated and multiplied better
[1]; GA3 2.89 μM
  Number of new shoots: 3 (3×) and 2 (2×) and 4 (2×)
[1]; GA3 5.77 μM
  Increase in length of the initial explant: ~1 cm
  Number of new shoots: 4 (2×) and 5 (2×) and 6 and 7 and 8
[1]; GA3 increased from 2.89 μM to 5.78 μM with 17.74 μM BAP and 5.71 μM IAA
  Average shoots per explant: four

## OCl [sodium hypochlorite]
[2]; 30 minute treatment
  Appearance of shoot tips after sterilisation: still green
[2]; 30 minutes of sterilisation, out of 188 plants
  Number of clean plants: 170 plants out of 188
[2]; 40 minute treatment
  Appearance of shoot tips after sterilisation: heavily bleached on the external tissue
[2]; 40 minutes of sterilisation, out of 44 total
  Number of clean plants: 41 plants out of 44
[2]; 40 minutes versus 30 minutes bleach treatment, in favour of 30 minutes
  Difference in time taken for shoots to emerge: about one
[2]; sterilizing only with sodium hypochlorite (no mercuric chloride), field grown cultures
  Contamination rate: 80%

## c1ccc(CNc2ncnc3[nH]cnc23)cc1 [BAP, benzylaminopurine]
[3]; BAP 17.74 μM with IAA 5.71 μM
  Average shoots per explant: 4
[3]; BAP 17.74 μM with IAA 5.71 μM, compared to BAP 22.19 μM
  Callus growth: less callus growth
[3]; BAP 22.19 μM and IAA 5.71 μM
  Average side shoots per explant: four
[3]; BAP concentrations higher than 44.38 μM
  Auxiliary shoots production: retarded

## OC[C@H]1O[C@@](CO)(O[C@H]2O[C@H](CO)[C@@H](O)[C@H](O)[C@H]2O)[C@@H](O)[C@@H]1O [sucrose]
[4]
  Effect on shoot development and multiplication: no significant effect
